Entries after “also recorded” stand apart in the source; their conditions may differ.
What was measured:
SARS-CoV-2, Beta variant [1] = system: SARS-CoV-2, Beta variant; parameters: species or system mice; conditions: mouse, in vivo, ip, 10 mg/kg
SARS-CoV-2, Beta variant [2] = format: in vivo; conditions: COVID-19 positive mice; for body weight nonlinear regression, Best fit / body weight as percent of baseline weight over time: 10 mg/kg I.P. BID, 10 day group; for body weight as percent of baseline weight over time: 10 mg/kg

SMILES	survival outcome (SARS-CoV-2, Beta variant [1])	body weight nonlinear regression, Best fit (SARS-CoV-2, Beta variant [2])	body weight as percent of baseline weight over time (SARS-CoV-2, Beta variant [2])	body weight nonlinear regression, Slope 1 (SARS-CoV-2, Beta variant [2]; Segmental Line fit)	body weight nonlinear regression, Slope2 (SARS-CoV-2, Beta variant [2]; Segmental Line fit)	body weight nonlinear regression, X0 (SARS-CoV-2, Beta variant [2]; Segmental Line fit)
CC(C(O)c1ccc(O)cc1)N1CCC(Cc2ccccc2)CC1 (stereo not drawn) [ifenprodil]	some protective effect	Segmental Line	appear to reduce observable signs of disease; also recorded: reduction in body weight starting around day 5; also recorded: body weight returned to normal levels by day 10 post-inoculation	-0.8076	0.8604	6
CC12CC3CC(C)(C1)CC(N)(C3)C2 [memantine]	good survival; also recorded: significantly improved survival outcome	Horizontal Line	appear to reduce observable signs of disease; also recorded: little to no fluctuation in body weight	–	–	–

From US20240350432A1, “CENTRAL NERVOUS SYSTEM MODULATORS AS COVID-19 THERAPEUTICS” (priority 2023, published 2024)
